Tests used:
[1] = test system: Gli1^het;RCE mice; experiment: GANT61 infusion into lateral ventricle during cuprizone demyelination/remyelination; GFP-labeled cells in Corpus Callosum by immunofluorescence; assay type: in vivo, mouse; conditions: n=3
Procedure: 10 week old mice were administered 5 mg Tamoxifen (Sigma) in corn oil on alternate days for total of 4 intraperitoneal (i.p.) injections. Gli1^het;RCE, mice, maintained on the Swiss-Webster background, were fed 0.4% cuprizone (Matsushima and Morell, 2001, Brain Pathol., 11:107-116; Elsworth & Howell, Research in Veterinary Science, 14:385-387, 1973). […] For the LPC model, 2 μl 1% LPC (Calbiochem) were stereotaxically injected into the CC at 1.5 mm anterior, 1.2 mm lateral and 2.2 mm ventral to bregma.
GANT61 (Enzo Life Sciences product #ALX-270-482) (5.6 mg/Kg per day; compound in 50% DMSO and 15% Ethanol in PEG400) or vehicle (50% DMSO+15% Ethanol in PEG400) were delivered via mini-osmotic pump (model 2004, Durect) at a rate of 0.25 μl/h for 4 weeks into the lateral ventricle of Gli^het;RCE mice at 0.5 mm Anterior, 0.75 mm lateral and 2.5 mm ventral to the bregma.
For Black-Gold (Millipore) staining, mice were perfused with 4% PFA and 20 μm coronal sections were stained according to manufacturer's protocol. For all other analysis, mice were perfused with Prefer (Anatech) and 20 μm coronal sections were stained with X-gal (Ahn & Joyner, Nature, 437:894-897, 2005) or processed for immunofluorescence with rabbit or chicken anti-GFP (1:1,000, Invitrogen) and one of the following antibodies: rat anti-PDGFRα (1:200, BD Biosciences); rabbit anti-NG2 (1:200, Millipore) and β4 spectrin (1:4,000 from M. Rasband); mouse anti-CC1 (1:400, Calbiochem), anti-GFAP (1:400, Sigma), anti-MOG (1:50, Sigma) and guinea pig anti-Caspr (1:3,000 from M. Bhat). Secondary antibodies were goat anti-species conjugated to Alexafluor-488, 594 or -680 (1:1,000, Molecular Probes). Nuclei were counterstained with Hoechst 33258 (1:5,000, Invitrogen). Fluorescent images were obtained as Z-stacks of 1 μm optical sections using a confocal laser-scanning microscope (LSM 510, Zeiss) and processed using Adobe Photoshop. At least 10 sections/mouse were analyzed and data from at least 3 mice were combined to determine the average and standard deviation. Student's t-test was performed to calculate P values.
To assess whether a strategy of inhibiting Gli1 could potentially be used therapeutically, GANT61, a small molecule inhibitor of Gli1 (Lauth et al., Proc. Natl. Acad. Sci. U.S.A., 104:8455-8460, 2007), was infused into the lateral ventricle of Gli1^het;RCE mice via a mini-osmotic pump. The infusion was started after 4 weeks of cuprizone diet and was continued for an additional 2 weeks on cuprizone and 2 weeks off cuprizone for a total of 4 weeks. Mice were then sacrificed and analyzed (FIG. 4a).

[2] = test system: Hh pathway; conditions: Peukert and Miller-Moslin, ChemMedChem 2010; cited from earlier work

Compound | numbers of labeled cells in the CC ([1]; 5.6 mg/Kg per day via mini-osmotic pump for 4 weeks (2 weeks on, 2 weeks off cuprizone), mean±SD, vehicle 6.4±5) | proportion of differentiated oligodendrocytes among GFP-labeled cells ([1]; 5.6 mg/Kg per day via mini-osmotic pump for 4 weeks, mean±SD, vehicle 21.4±18.7%) | increase in GFP-labeled cells in the CC ([1]; FIG. 4C, versus control infusion) | percentage of mature oligodendrocytes ([1]; FIG. 4D, versus control infusion, Student's T test) | selectivity for the Hh pathway over TNF/NFkN signaling, glucocorticoid receptor gene transactivation, and the Ras-Raf-Mek-Mapk cascade [2]
CN(C)c1ccccc1CN1CCCN(Cc2ccccc2N(C)C)C1c1ccncc1 [GANT61] | 43.8±22.1 per section | 65.4±7.5% | ~7 fold | significant increase | display selectivity for the Hh pathway
c1cc(-c2sc(-c3ccncc3)c(-c3ccncc3)c2-c2ccncc2)ccn1 [GANT58] |  |  |  |  | display selectivity for the Hh pathway

— US9248128B2, “Method for enhancing remyelination using GLI1 inhibitors” (NEW YORK UNIVERSITY, priority 2012, dated 2016)
